One block for each compound: values may come before it.
How the values were obtained:
[1] = Chronic allograft nephropathy diagnosis in renal transplant patients (protocol biopsies, Banff 97); details: EVR co-administration
[2] = MPA pharmacokinetics in renal transplant patients on MMF (plasma HPLC-UV, Bayesian estimation of AUC); assay type: in vivo, human; details: for AUC(0-t) / Cmax: human, plasma; for AUC(0-t): MPA AUC(0–12); for Patients with MPA AUC outside the therapeutic window range: range 30–60 h mg/L
Description: Anonymized medical records of 404 patients receiving immunosuppressant therapy after renal transplantation hospitalized at Limoges University Hospital (France) during the study period from 2011 to 2012 were reviewed. […] The patients were excluded if they received immunosuppression with other medicaments and underwent transplantation of other organs.
All patients received prednisolone orally by standard hospital practice.
According to the MMF daily dose, the study patients were allocated into the 3 study groups: the low MMF dose group received 1000 mg per day (28 patients); medium MMF dose group, 2000 mg per day (54 patients); and high MMF dose group, 3000 mg per day (18 patients).
Blood samples were collected in EDTA tubes at 20 minutes, 1 and 3 hours after the administration of MMF. Plasma was separated by centrifugation. […] Blood serum (500 μL), an internal standard (50 μL) (thiopental in methanol 1 g/L diluted with deproteinized water to 25 mg/L), and calibrators were acidified with hydrochloric acid and extracted with dichloromethane (5 mL). […] The organic fraction was then evaporated to dryness under a stream of nitrogen. The dry residue was reconstituted with 100-μL elution solvent (KH2PO4 buffer/acetonitrile [70/30 v/v] at pH = 2.6). Then, the sample (40 μL) was injected into the HPLC system with a steel column Nucleosil C18, 5 μm (250 × 4.6 mm, id) and with UV detection at 300 nm.

[3] = Low-dose MMF group, 1000 mg/day, EVR group

Chronic allograft nephropathy diagnosed, patients ([1]; high MMF dose group (2 of 4)): 50.0% | Chronic allograft nephropathy diagnosed, patients ([1]; in total): 64.7% | Chronic allograft nephropathy diagnosed, patients ([1]; low MMF dose group (7 of 9)): 77.8% | Chronic allograft nephropathy diagnosed, patients ([1]; medium MMF dose group (2 of 4)): 50.0%
SMILES: CO[C@H]1C[C@@H]2CC[C@@H](C)[C@@](O)(O2)C(=O)C(=O)N2CCCC[C@H]2C(=O)O[C@H]([C@H](C)C[C@@H]2CC[C@@H](OCCO)[C@H](OC)C2)CC(=O)[C@H](C)/C=C(\C)[C@@H](O)[C@@H](OC)C(=O)[C@H](C)C[C@H](C)/C=C/C=C/C=C/1C [EVR, everolimus]

MPA AUC lower in low CsA dose group versus high CsA dose group ([2]; CsA 120–180 mg versus 240–300 mg): approximately 33% | MPA C0, mean ± SD (range) ([2]; CsA + MMF group, all MMF doses (n = 83)): 1.00 ± 0.47 (0.00–2.00) mg/L | MPA C0, mean ± SD (range) ([2]; EVR + MMF group, all MMF doses (n = 17)): 2.58 ± 1.43 (0.68–4.98) mg/L | MPA C0, mean ± SD (range) ([2]; High-dose MMF group, 3000 mg/day, CsA group): 1.29 ± 0.47 (1.00–2.00) mg/L | MPA C0, mean ± SD (range) ([2]; High-dose MMF group, 3000 mg/day, EVR group): 3.19 ± 1.60 (1.41–4.89) mg/L | MPA C0, mean ± SD (range) ([2]; Low-dose MMF group, 1000 mg/day, CsA group): 0.58 ± 0.51 (0.00–1.00) mg/L | MPA AUC(0–12), mean ± SD (range) [2, 3]: 31.89 ± 8.43 (20.82–42.25) h mg/L | MPA C0, mean ± SD (range) [2, 3]: 1.61 ± 0.65 (0.68–2.24) mg/L | MPA C0, mean ± SD (range) ([2]; Medium-dose MMF group, 2000 mg/day, EVR group): 4.17 ± 0.78 (3.12–4.98) mg/L | AUC(0-t) ([2]; mean ± SD (range), CsA + MMF group, all MMF doses (n = 83)): 37900 ± 14100 ng·h/mL | AUC(0-t) ([2]; mean ± SD (range), EVR + MMF group, all MMF doses (n = 17)): 47000 ± 21900 ng·h/mL | AUC(0-t) ([2]; mean ± SD (range), High-dose MMF group, 3000 mg/day, CsA group): 44600 ± 14000 ng·h/mL | AUC(0-t) ([2]; mean ± SD (range), High-dose MMF group, 3000 mg/day, EVR group): 59500 ± 18300 ng·h/mL | AUC(0-t) ([2]; mean ± SD (range), Low-dose MMF group, 1000 mg/day, CsA group): 30600 ± 12700 ng·h/mL | AUC(0-t) ([2]; mean ± SD (range), Medium-dose MMF group, 2000 mg/day, CsA group): 38700 ± 13700 ng·h/mL | AUC(0-t) ([2]; mean ± SD (range), Medium-dose MMF group, 2000 mg/day, EVR group): 68700 ± 22700 ng·h/mL | AUC(0-t) ([2]; mean ± SD, CsA + MMF, MMF 1000 mg/day, CsA 120–180 mg/day): 28100 ± 11000 ng·h/mL | AUC(0-t) ([2]; mean ± SD, CsA + MMF, MMF 1000 mg/day, CsA 180–240 mg/day): 40500 ± 11000 ng·h/mL | AUC(0-t) ([2]; mean ± SD, CsA + MMF, MMF 2000 mg/day, CsA 120–180 mg/day): 28800 ± 11100 ng·h/mL | AUC(0-t) ([2]; mean ± SD, CsA + MMF, MMF 2000 mg/day, CsA 180–240 mg/day): 41800 ± 15600 ng·h/mL | AUC(0-t) ([2]; mean ± SD, CsA + MMF, MMF 2000 mg/day, CsA 240–300 mg/day): 43000 ± 6270 ng·h/mL | AUC(0-t) ([2]; mean ± SD, CsA + MMF, MMF 3000 mg/day, CsA 120–180 mg/day): 36200 ± 3700 ng·h/mL | AUC(0-t) ([2]; mean ± SD, CsA + MMF, MMF 3000 mg/day, CsA 180–240 mg/day): 43400 ± 13100 ng·h/mL | AUC(0-t) ([2]; mean ± SD, CsA + MMF, MMF 3000 mg/day, CsA 240–300 mg/day): 56800 ± 16800 ng·h/mL | Cmax ([2]; MPA Cmax related to high-dose CsA, CsA >240 mg/day): > 10000 ng/mL | Cmax ([2]; MPA Cmax, mean ± SD (range), CsA + MMF group, all MMF doses (n = 83)): 17600 ± 8510 ng/mL | Cmax ([2]; MPA Cmax, mean ± SD (range), EVR + MMF group, all MMF doses (n = 17)): 14300 ± 6380 ng/mL | Cmax ([2]; MPA Cmax, mean ± SD (range), High-dose MMF group, 3000 mg/day, CsA group): 21000 ± 7050 ng/mL | Cmax ([2]; MPA Cmax, mean ± SD (range), Low-dose MMF group, 1000 mg/day, CsA group): 15500 ± 8930 ng/mL | Cmax ([2]; MPA Cmax, mean ± SD (range), Low-dose MMF group, 1000 mg/day, EVR group): 10800 ± 4810 ng/mL | Cmax ([2]; MPA Cmax, mean ± SD (range), Medium-dose MMF group, 2000 mg/day, CsA group): 17500 ± 8580 ng/mL | Cmax ([2]; MPA Cmax, mean ± SD (range), Medium-dose MMF group, 2000 mg/day, EVR group): 17400 ± 7740 ng/mL | Cmax ([2]; MPA Cmax, mean ± SD, CsA + MMF, MMF 1000 mg/day, CsA 120–180 mg/day): 12100 ± 5590 ng/mL | Cmax ([2]; MPA Cmax, mean ± SD, CsA + MMF, MMF 1000 mg/day, CsA 180–240 mg/day): 22800 ± 10800 ng/mL | Cmax ([2]; MPA Cmax, mean ± SD, CsA + MMF, MMF 2000 mg/day, CsA 120–180 mg/day): 13000 ± 6820 ng/mL | Cmax ([2]; MPA Cmax, mean ± SD, CsA + MMF, MMF 2000 mg/day, CsA 180–240 mg/day): 17000 ± 8020 ng/mL | Cmax ([2]; MPA Cmax, mean ± SD, CsA + MMF, MMF 2000 mg/day, CsA 240–300 mg/day): 22800 ± 8860 ng/mL | Cmax ([2]; MPA Cmax, mean ± SD, CsA + MMF, MMF 3000 mg/day, CsA 120–180 mg/day): 19000 ± 5390 ng/mL | Cmax ([2]; MPA Cmax, mean ± SD, CsA + MMF, MMF 3000 mg/day, CsA 180–240 mg/day): 22800 ± 8120 ng/mL | Cmax ([2]; MPA Cmax, mean ± SD, CsA + MMF, MMF 3000 mg/day, CsA 240–300 mg/day): 21200 ± 8770 ng/mL | MPA AUC(0–12) higher with MMF + EVR than with MMF + CsA ([2]; medium MMF dose (2000 mg)): 43%
SMILES: COc1c(C)c2c(c(O)c1C/C=C(\C)CCC(=O)O)C(=O)OC2 [MPA, mycophenolic acid]
Patients with MPA AUC outside the therapeutic window range ([2]; MMF + CsA): 31.3% | Patients with MPA AUC outside the therapeutic window range ([2]; MMF + EVR): 47.00% | Patients with MPA AUC outside the therapeutic window range ([2]; all study patients): 34%
